From the supplement of paper PMC10307832

Compound: CCN1C(=O)C2=CC(=C(N=C2N(C1=O)C3CC3)N)C(=O)N + CC(=O)c1c(C)c2cnc(Nc3ccc(N4CCNCC4)cn3)nc2n(C2CCCC2)c1=O [Palbociclib] (partner 0.5 µM)
Assay: relative viability (nuclei count vs DMSO), 5 days (fraction); higher = more cells survive
Summary of the method: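 Lung cancer cell lines in 1536-well plates were dosed by pin tool the day after seeding, either with one drug alone or with a fixed anchor-drug dose plus five library-drug doses (not always all listed) in √10 steps. After 5 days, cells were fixed and their nuclei stained in one step (final 0.05% Triton X-100, 1% formaldehyde, 1 ug/ml Hoechst), then counted on 4× images. Relative viability is the nuclei count in treated wells divided by that in vehicle wells. Values are medians of duplicate plates.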

Row | Cell Line | relative viability (first compound 0.253 µM) | relative viability (first compound 0.8 µM) | relative viability (first compound 2.53 µM) | relative viability (first compound 8 µM)
1 | 201T | 0.392 | 0.348 | 0.38 | 0.369
2 | A-427 | 0.497 | 0.522 | 0.486 | 0.535
3 | ABC-1 | 0.819 | – | 0.709 | 0.799
4 | BEN | 0.448 | 0.478 | 0.411 | 0.456
5 | CAL-12T | 0.452 | 0.448 | 0.475 | 0.418
6 | COR-L23 | 0.355 | 0.334 | 0.322 | 0.266
7 | COR-L 105 | 0.377 | 0.431 | 0.397 | 0.366
8 | ChaGo-K-1 | 0.898 | 0.97 | 0.897 | 0.99
9 | EKVX | 0.63 | 0.471 | 0.401 | 0.348
10 | EMC-BAC-2 | 0.543 | – | 0.47 | 0.468
11 | EPLC-272H | 0.309 | 0.358 | 0.331 | 0.358
12 | H3255 | 0.321 | 0.335 | 0.327 | 0.279
13 | HARA | 0.265 | 0.32 | 0.195 | 0.229
14 | HCC-15 | 0.764 | 0.731 | 0.675 | 0.712
15 | HCC-44 | 0.998 | 0.912 | 0.972 | 1
16 | HCC-78 | 0.472 | 0.463 | 0.509 | 0.449
17 | HCC-366 | 0.334 | 0.403 | 0.378 | 0.417
18 | HCC-827 | 0.475 | 0.45 | 0.395 | 0.517
19 | HOP-62 | 0.516 | 0.428 | 0.415 | 0.474
20 | LC-2-ad | 0.424 | 0.53 | 0.483 | 0.496
21 | LCLC-97TM1 | 0.272 | 0.244 | 0.294 | 0.181
22 | LCLC-103H | 0.446 | 0.481 | 0.479 | 0.456
23 | LK-2 | 0.705 | 0.565 | 0.683 | 0.974
24 | LOU-NH91 | 0.542 | 0.554 | 0.516 | 0.513

Row | Cell Line | relative viability (first compound 0.253 µM) | relative viability (first compound 0.8 µM) | relative viability (first compound 2.53 µM) | relative viability (first compound 8 µM)
25 | LU99A | 0.461 | 0.448 | 0.419 | 0.409
26 | LXF-289 | 0.616 | 0.581 | 0.657 | 0.588
27 | NCI-H23 | 0.502 | 0.604 | 0.461 | 0.49
28 | NCI-H322M | 0.478 | 0.455 | 0.482 | 0.502
29 | NCI-H358 | 0.122 | 0.134 | 0.127 | 0.14
30 | NCI-H441 | 0.22 | 0.231 | 0.224 | 0.244
31 | NCI-H460 | 0.22 | 0.151 | 0.115 | 0.192
32 | NCI-H520 | 0.24 | 0.228 | 0.185 | 0.203
33 | NCI-H522 | 0.954 | 0.966 | 0.794 | 1.1
34 | NCI-H647 | 0.434 | 0.356 | 0.328 | 0.355
35 | NCI-H650 | 0.363 | 0.299 | 0.342 | 0.334
36 | NCI-H661 | 0.391 | 0.389 | 0.39 | 0.4
37 | NCI-H727 | 0.642 | 0.616 | 0.605 | 0.553
38 | NCI-H838 | 0.251 | 0.216 | 0.215 | 0.213
39 | NCI-H1355 | 0.418 | 0.358 | 0.396 | 0.395
40 | NCI-H1395 | 0.707 | 0.694 | 0.603 | 0.578
41 | NCI-H1437 | 0.337 | 0.323 | 0.315 | 0.245
42 | NCI-H1650 | 0.315 | 0.364 | 0.346 | 0.313
43 | NCI-H1651 | 0.471 | 0.489 | 0.512 | 0.501
44 | NCI-H1666 | 0.683 | 0.654 | 0.629 | 0.65
45 | NCI-H1734 | 0.346 | 0.328 | 0.363 | 0.36
46 | NCI-H1755 | 0.443 | 0.453 | 0.436 | 0.44
47 | NCI-H1792 | 0.674 | 0.631 | 0.668 | 0.653
48 | NCI-H1793 | 0.258 | 0.322 | 0.27 | 0.3

Row | Cell Line | relative viability (first compound 0.253 µM) | relative viability (first compound 0.8 µM) | relative viability (first compound 2.53 µM) | relative viability (first compound 8 µM)
49 | NCI-H1915 | 0.531 | 0.508 | 0.493 | 0.526
50 | NCI-H1944 | 0.421 | 0.324 | 0.33 | 0.365
51 | NCI-H1975 | 0.564 | 0.623 | 0.602 | 0.489
52 | NCI-H1993 | 0.414 | 0.561 | 0.651 | 0.676
53 | NCI-H2009 | 0.208 | 0.184 | 0.21 | 0.186
54 | NCI-H2023 | 0.438 | 0.39 | 0.313 | 0.382
55 | NCI-H2085 | 0.479 | 0.446 | 0.441 | 0.445
56 | NCI-H2087 | 0.216 | 0.238 | 0.275 | 0.236
57 | NCI-H2126 | 0.332 | 0.345 | 0.349 | 0.364
58 | NCI-H2170 | 0.385 | 0.389 | 0.395 | 0.363
59 | NCI-H2228 | 0.73 | 0.683 | 0.866 | 0.811
60 | NCI-H2347 | 0.458 | 0.489 | 0.445 | 0.492
61 | NCI-H2405 | 0.523 | – | 0.554 | 0.527
62 | NCI-H3122 | 0.183 | 0.182 | 0.152 | 0.209
63 | PC-3 [JPC-3] | 0.545 | – | 0.559 | 0.52
64 | PC-14 | 0.555 | 0.525 | 0.526 | 0.514
65 | RERF-LC-KJ | 1.09 | 1.1 | 1.09 | 1.13
66 | SK-LU-1 | 0.389 | 0.45 | 0.371 | 0.412
67 | SK-MES-1 | 0.362 | 0.285 | 0.324 | 0.282
68 | SW 900 | 0.551 | 0.558 | 0.521 | 0.669
69 | SW 1573 | 0.39 | 0.384 | 0.399 | 0.451
70 | UMC-11 | 0.333 | 0.336 | 0.336 | 0.279
